Assays:
Type in all cases: in vivo
[1] = test system: barnyardgrass (Echinochloa crus-galli); assay: Test A postemergence; conditions: Echinochloa crus-galli, post-emergence, 240 h, Postemergence, read-out: Plant response rating, Barnyardgrass
In short: (§1)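 Greenhouse, ~10 d after spray; visual injury vs untreated controls, 0 = no effect, 100 = complete control. Preemergence: directed soil spray over planted seeds. Postemergence: plants 2–10 cm, 1–2 leaf stage. Loam/sand blend. Compound in non-phytotoxic solvent with surfactant.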

[2] = test system: Kochia (Kochia scoparia); assay: Test A postemergence; conditions: Bassia scoparia, post-emergence, 240 h, Postemergence, read-out: Plant response rating, Kochia
In short: as §1

[3] = test system: ryegrass, Italian (Italian ryegrass, Lolium multiflorum); assay: Test A postemergence; conditions: Lolium multiflorum, post-emergence, 240 h, Postemergence, read-out: Plant response rating, Ryegrass, Italian
In short: as §1

[4] = test system: pigweed (Amaranthus retroflexus); assay: Test A postemergence; conditions: Amaranthus retroflexus, post-emergence, 240 h, Postemergence, read-out: Plant response rating, Pigweed
In short: as §1

[5] = test system: Galium (catchweed bedstraw, Galium aparine); assay: Test A postemergence; conditions: Galium, post-emergence, 240 h, Postemergence, read-out: Plant response rating, Galium
In short: as §1

[6] = test system: giant foxtail (Setaria faberii); assay: Test A postemergence; conditions: Setaria faberi, post-emergence, 240 h, Postemergence, read-out: Plant response rating, Foxtail, Giant
In short: as §1

[7] = test system: wheat (Triticum aestivum); assay: Test A postemergence; conditions: Triticum aestivum, post-emergence, 240 h, Postemergence, read-out: Plant response rating, Wheat
In short: as §1

[8] = test system: blackgrass (Alopecurus myosuroides); assay: Test A postemergence; conditions: Alopecurus myosuroides, post-emergence, 240 h, Postemergence, read-out: Plant response rating, Blackgrass
In short: as §1

[9] = test system: corn (Zea mays); assay: Test A postemergence; conditions: Zea mays, post-emergence, 240 h, Postemergence
In short: as §1

[10] = test system: ragweed (common ragweed, Ambrosia elatior); assay: Test A postemergence; conditions: Ambrosia artemisiifolia, post-emergence, 240 h, Postemergence, read-out: Plant response rating, Ragweed
In short: as §1

[11] = test system: barnyardgrass (Echinochloa crus-galli); assay: Test A preemergence; conditions: Echinochloa crus-galli, pre-emergence, 240 h, 0 to 100 scale (0 no effect, 100 complete control), read-out: Plant response rating, Barnyardgrass
In short: as §1

[12] = test system: Kochia (Kochia scoparia); assay: Test A preemergence; conditions: Bassia scoparia, pre-emergence, 240 h, 0 to 100 scale (0 no effect, 100 complete control), read-out: Plant response rating, Kochia
In short: as §1

[13] = test system: ryegrass, Italian (Italian ryegrass, Lolium multiflorum); assay: Test A preemergence; conditions: Lolium multiflorum, pre-emergence, 240 h, 0 to 100 scale (0 no effect, 100 complete control), read-out: Plant response rating, Ryegrass, Italian
In short: as §1

[14] = test system: pigweed (Amaranthus retroflexus); assay: Test A preemergence; conditions: Amaranthus retroflexus, pre-emergence, 240 h, 0 to 100 scale (0 no effect, 100 complete control), read-out: Plant response rating, Pigweed
[15] = test system: giant foxtail (Setaria faberii); assay: Test A preemergence; conditions: Setaria faberi, pre-emergence, 240 h, 0 to 100 scale (0 no effect, 100 complete control), read-out: Plant response rating, Foxtail, Giant
In short: as §1

[16] = test system: ragweed (common ragweed, Ambrosia elatior); assay: Test A preemergence; conditions: Ambrosia artemisiifolia, pre-emergence, 240 h, 0 to 100 scale (0 no effect, 100 complete control), read-out: Plant response rating, Ragweed
In short: as §1

[17] = 125 g ai/ha, visual injury after approx. 10 d, 0 to 100 scale, 0 no effect, 100 complete control
[18] = 500 g ai/ha, visual injury, 0 to 100 scale (0 no effect, 100 complete control), approx. 10 d

CN1CC[C@H](c2cccc(C(F)(F)F)c2)[C@@H](C(=O)Nc2ccc(F)c(F)c2F)C1=O [Compound 1395]
pest or weed control at 125 g/ha [1, 17]: 90% | pest or weed control at 500 g/ha [1, 18]: 90% | pest or weed control at 125 g/ha [2, 17]: 0% | pest or weed control at 500 g/ha [2, 18]: 0% | pest or weed control at 125 g/ha [3, 17]: 20% | pest or weed control at 500 g/ha [3, 18]: 20% | pest or weed control at 125 g/ha [4, 17]: 0% | pest or weed control at 500 g/ha [4, 18]: 0% | pest or weed control at 125 g/ha [5, 17]: 0% | pest or weed control at 500 g/ha [5, 18]: 0% | pest or weed control at 125 g/ha [6, 17]: 90% | pest or weed control at 500 g/ha [6, 18]: 90% | plant injury at 125 g/ha [7, 17]: 20% | plant injury at 500 g/ha [7, 18]: 40% | pest or weed control at 125 g/ha [8, 17]: 70% | pest or weed control at 500 g/ha [8, 18]: 0% | Corn plant response rating (crop injury, 0 = no effect, 100 = complete kill) at 125 g/ha [9, 17]: 50% | Corn plant response rating (crop injury, 0 = no effect, 100 = complete kill) at 500 g/ha [9, 18]: 70% | pest or weed control at 125 g/ha [10, 17]: 0% | pest or weed control at 500 g/ha [10, 18]: 0% | pest or weed control at 500 g/ha ([11]; 500 g ai/ha, preemergence): 90% | pest or weed control at 125 g/ha ([11]; Preemergence, 125 g ai/ha): 90% | pest or weed control at 500 g/ha ([12]; 500 g ai/ha, preemergence): 0% | pest or weed control at 125 g/ha ([12]; Preemergence, 125 g ai/ha): 0% | pest or weed control at 500 g/ha ([13]; 500 g ai/ha, preemergence): 40% | pest or weed control at 125 g/ha ([13]; Preemergence, 125 g ai/ha): 50% | pest or weed control at 500 g/ha ([14]; 500 g ai/ha, preemergence): 0% | pest or weed control at 125 g/ha ([14]; Preemergence, 125 g ai/ha): 0% | pest or weed control at 500 g/ha ([15]; 500 g ai/ha, preemergence): 90% | pest or weed control at 125 g/ha ([15]; Preemergence, 125 g ai/ha): 90% | pest or weed control at 500 g/ha ([16]; 500 g ai/ha, preemergence): 0% | pest or weed control at 125 g/ha ([16]; Preemergence, 125 g ai/ha): 0%
